In US20230085307A1, “PYRIDAZINONE COMPOUND AND HERBICIDE” (NISSAN CHEMICAL CORPORATION, priority 2019, published 2023):

Legend:
wild oat [1] = assay: Test Example 4: herbicidal effect by soil treatment (Table 19, symbol I); format: in vivo, wild oat (Avena fatua)
Method in brief: (§1)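 Scoring uses the grading scale of an earlier test, three weeks post-application. Treatment consists of spraying a diluted emulsion formulation across the surface of sterilized diluvial soil in which seeds are buried near 1.5 cm deep; boxes are kept in a greenhouse between 25° C. and 30° C.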

southern crabgrass = assay: Test Example 4: herbicidal effect by soil treatment (Table 19, symbol F); format: in vivo, southern crabgrass (Digitaria ciliaris)
Method in brief: as §1

windgrass [2] = assay: Test Example 5: herbicidal effect by foliage application, plastic box (Table 20, symbol L); format: in vivo, windgrass (Apera spica-venti); conditions: foliage application, 320 g/ha; for effect on windgrass (L): 3 weeks after application
Method in brief: (§2)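 Post-emergence foliar test in sterilized diluvial soil. Compound applied as water-diluted emulsion at a predetermined rate to 14-day-old plants; evaluation at three weeks.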

persian speedwell [3] = assay: Test Example 5: herbicidal effect by foliage application, plastic box (Table 20, symbol R); format: in vivo, Persian speedwell (Veronica persica); conditions: foliage application, 320 g/ha; for effect on persian speedwell (R): 3 weeks after application
Method in brief: as §2

Italian ryegrass = assay: Test Example 4: herbicidal effect by soil treatment (Table 19, symbol K); format: in vivo, Italian ryegrass (Lolium multiflorum)
Method in brief: as §1

oval-leafed pondweed = assay: Test Example 2: herbicidal activity, application during weed generation under submerged conditions (Table 17, symbol C); format: in vivo, oval-leafed pondweed (Monochoria vaginalis); conditions: AAH 320 g/ha; application during weed generation, submerged conditions
Method in brief: (§3)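 Alluvial soil in Wagner pots was flooded to 4 cm depth and sown with the three weeds together; pots were kept in a greenhouse at 25° C. to 30° C. At the one to two leaf stage, an emulsion formulation diluted in water to a set rate went onto the water surface; scored three weeks later.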

wild oat [4] = assay: Test Example 5: herbicidal effect by foliage application, plastic box (Table 20, symbol I); format: in vivo, wild oat (Avena fatua); conditions: foliage application, 320 g/ha; for effect on wild oat (I): 3 weeks after application
Method in brief: as §2

persian speedwell [5] = assay: Test Example 4: herbicidal effect by soil treatment (Table 19, symbol R); format: in vivo, Persian speedwell (Veronica persica)
Method in brief: as §1

lambsquarters [6] = assay: Test Example 5: herbicidal effect by foliage application, plastic box (Table 20, symbol O); format: in vivo, lambsquarters (Chenopodium album); conditions: foliage application, 320 g/ha; for effect on lambsquarters (O): 3 weeks after application
Method in brief: as §2

late watergrass = assay: Test Example 2: herbicidal activity, application during weed generation under submerged conditions (Table 17, symbol A); format: in vivo, late watergrass (Echinochloa oryzicola); conditions: AAH 320 g/ha; application during weed generation, submerged conditions
Method in brief: as §3

lambsquarters [7] = assay: Test Example 4: herbicidal effect by soil treatment (Table 19, symbol O); format: in vivo, lambsquarters (Chenopodium album)
Method in brief: as §1

barnyard grass = assay: Test Example 5: herbicidal effect by foliage application, plastic box (Table 20, symbol H); format: in vivo, barnyard grass (Echinochloa crus-galli); conditions: foliage application, 320 g/ha; for effect on barnyard grass (H): 3 weeks after application
Method in brief: as §2

Chinese sprangletop = assay: Test Example 3: herbicidal effect by foliage application, Wagner pot (Table 18, symbol D); format: in vivo, chinese sprangletop (Leptochloa chinensis); conditions: for herbicidal effect on D (Chinese sprangletop), rating 0-5: 320 g/ha
Method in brief: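 Plants were sown in alluvial soil held under 0.1–0.5 cm standing water and grown 14 days in a greenhouse at 25–30 °C. An emulsifiable formulation, water-diluted to the set dose, was then sprayed onto the foliage, and effects were scored three weeks later using previously defined criteria.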

velvetleaf = assay: Test Example 5: herbicidal effect by foliage application, plastic box (Table 20, symbol M); format: in vivo, velvetleaf (Abutilon theophrasti); conditions: foliage application, 320 g/ha; for effect on velvetleaf (M): 3 weeks after application
Method in brief: as §2

Japanese bulrush = assay: Test Example 1: herbicidal activity, application before weed generation under submerged conditions (Table 16, symbol B); format: in vivo, Japanese bulrush (Schoenoplectus juncoides); conditions: 320 g/ha applied herbicide
Method in brief: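 Emulsion formulation, water-diluted to set dose, was put onto the flooded surface (4 cm depth, alluvial soil) the same day weeds were sown and 2.5-leaf rice transplanted. After 3 weeks at 25-30 °C under glass, each species was rated 0 (≤5% kill) to 5 (≥90% kill).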

blackgrass = assay: Test Example 4: herbicidal effect by soil treatment (Table 19, symbol J); format: in vivo, blackgrass (Alopecurus myosuroides)
Method in brief: as §1

windgrass [8] = assay: Test Example 4: herbicidal effect by soil treatment (Table 19, symbol L); format: in vivo, windgrass (Apera spica-venti)
Method in brief: as §1

[9] = amount of applied herbicide 320 g/ha
[10] = evaluated three weeks after application

SMILES | herbicidal effect rating, C: oval-leafed pondweed (oval-leafed pondweed) | herbicidal effect rating, A: late watergrass (late watergrass) | herbicidal effect on D (Chinese sprangletop), rating 0-5 (Chinese sprangletop) | Herbicidal effect on B: Japanese bulrush (grade 0-5) (Japanese bulrush) | herbicidal effect rating, I: wild oat (wild oat [1]; 320 g/ha) | herbicidal effect rating, F: southern crabgrass (southern crabgrass; 320 g/ha) | effect on windgrass (L) (windgrass [2]) | effect on persian speedwell (R) (persian speedwell [3]) | herbicidal effect rating, K: Italian ryegrass (Italian ryegrass; 320 g/ha) | effect on wild oat (I) (wild oat [4]) | herbicidal effect rating, R: persian speedwell (persian speedwell [5]; 320 g/ha) | effect on lambsquarters (O) (lambsquarters [6]) | herbicidal effect rating, O: lambsquarters (lambsquarters [7]; 320 g/ha) | effect on barnyard grass (H) (barnyard grass) | effect on velvetleaf (M) (velvetleaf) | herbicidal effect rating, J: blackgrass (blackgrass; 320 g/ha) | herbicidal effect rating, L: windgrass (windgrass [8]; 320 g/ha) | also measured
CCCC(=O)Oc1c(C)nn(C)c(=O)c1-c1c(-c2ccc(SC)cc2)sc2ccccc12 [1-037] | 3 (Herbicidal rate of 40% or more and less than 70%) | 0 (Herbicidal rate of 5% or less (almost no effect)) | 3 (Herbicidal rate of 40% or more and less than 70%) | 4 (Herbicidal rate of 70% or more and less than 90%) | – | – | – | – | – | – | – | – | – | – | – | – | – | herbicidal effect rating, I: wild oat (wild oat [1]; [9]): 0 (Herbicidal rate of 5% or less (almost no effect)); herbicidal effect rating, F: southern crabgrass (southern crabgrass; [9]): 0 (Herbicidal rate of 5% or less (almost no effect)); herbicidal effect grade, L: windgrass (windgrass [2]; three weeks after application): 0 (Herbicidal rate of 5% or less (almost no effect)); herbicidal effect grade, R: persian speedwell (persian speedwell [3]; three weeks after application): 5 (Herbicidal rate of 90% or more (almost completely withered)); herbicidal effect rating, K: Italian ryegrass (Italian ryegrass; [9]): 1 (Herbicidal rate of 5% or more and less than 20%); herbicidal effect grade, I: wild oat (wild oat [4]; three weeks after application): 1 (Herbicidal rate of 5% or more and less than 20%); herbicidal effect rating, R: persian speedwell (persian speedwell [5]; [9]): 3 (Herbicidal rate of 40% or more and less than 70%); herbicidal effect grade, O: lambsquarters (lambsquarters [6]; three weeks after application): 5 (Herbicidal rate of 90% or more (almost completely withered)); herbicidal effect rating, O: lambsquarters (lambsquarters [7]; [9]): 3 (Herbicidal rate of 40% or more and less than 70%); herbicidal effect grade, H: barnyard grass (barnyard grass; three weeks after application): 4 (Herbicidal rate of 70% or more and less than 90%); herbicidal effect grade, M: velvetleaf (velvetleaf; three weeks after application): 5 (Herbicidal rate of 90% or more (almost completely withered)); herbicidal effect rating, J: blackgrass (blackgrass; [9]): 0 (Herbicidal rate of 5% or less (almost no effect)); herbicidal effect rating, L: windgrass (windgrass [8]; [9]): 0 (Herbicidal rate of 5% or less (almost no effect))
CCOc1ccc(-c2sc3ccc(F)cc3c2-c2c(O)c(C)nn(C)c2=O)cc1 [2-030] | 0 (Herbicidal rate of 5% or less (almost no effect)) | 0 (Herbicidal rate of 5% or less (almost no effect)) | 3 (Herbicidal rate of 40% or more and less than 70%) | 0 (Herbicidal rate of 5% or less (almost no effect)) | 0 (Herbicidal rate of 5% or less (almost no effect)) | 0 (Herbicidal rate of 5% or less (almost no effect)) | 3 (Herbicidal rate of 40% or more and less than 70%) | 5 (Herbicidal rate of 90% or more (almost completely withered)) | 0 (Herbicidal rate of 5% or less (almost no effect)) | 0 (Herbicidal rate of 5% or less (almost no effect)) | 5 (Herbicidal rate of 90% or more (almost completely withered)) | 4 (Herbicidal rate of 70% or more and less than 90%) | 5 (Herbicidal rate of 90% or more (almost completely withered)) | 5 (Herbicidal rate of 90% or more (almost completely withered)) | 5 (Herbicidal rate of 90% or more (almost completely withered)) | 0 (Herbicidal rate of 5% or less (almost no effect)) | 0 (Herbicidal rate of 5% or less (almost no effect)) | –
COCc1ccc(-c2sc3ccc(F)cc3c2-c2c(O)c(C)nn(C)c2=O)cc1 [2-022] | 4 (Herbicidal rate of 70% or more and less than 90%) | 2 (Herbicidal rate of 20% or more and less than 40%) | 4 (Herbicidal rate of 70% or more and less than 90%) | 5 (Herbicidal rate of 90% or more (almost completely withered)) | 0 (Herbicidal rate of 5% or less (almost no effect)) | 3 (Herbicidal rate of 40% or more and less than 70%) | 4 (Herbicidal rate of 70% or more and less than 90%) | 5 (Herbicidal rate of 90% or more (almost completely withered)) | 5 (Herbicidal rate of 90% or more (almost completely withered)) | 3 (Herbicidal rate of 40% or more and less than 70%) | 5 (Herbicidal rate of 90% or more (almost completely withered)) | 4 (Herbicidal rate of 70% or more and less than 90%) | 4 (Herbicidal rate of 70% or more and less than 90%) | 5 (Herbicidal rate of 90% or more (almost completely withered)) | 5 (Herbicidal rate of 90% or more (almost completely withered)) | 4 (Herbicidal rate of 70% or more and less than 90%) | 5 (Herbicidal rate of 90% or more (almost completely withered)) | –
Cc1nn(C)c(=O)c(-c2c(-c3cccc(OC(C)C)c3)sc3ccc(F)cc23)c1O [2-215] | 0 (Herbicidal rate of 5% or less (almost no effect)) | 2 (Herbicidal rate of 20% or more and less than 40%) | – | 0 (Herbicidal rate of 5% or less (almost no effect)) | – | – | – | – | – | – | – | – | – | – | – | – | – | I: wild oat, herbicidal effect rating (wild oat [1]; [9]): 0 (Herbicidal rate of 5% or less (almost no effect)); F: southern crabgrass, herbicidal effect rating (southern crabgrass; [9]): 5 (Herbicidal rate of 90% or more (almost completely withered)); herbicidal effect on L: windgrass (criteria 0-5) (windgrass [2]; [10]): 3 (Herbicidal rate of 40% or more and less than 70%); herbicidal effect on R: persian speedwell (criteria 0-5) (persian speedwell [3]; [10]): 5 (Herbicidal rate of 90% or more (almost completely withered)); K: Italian ryegrass, herbicidal effect rating (Italian ryegrass; [9]): 3 (Herbicidal rate of 40% or more and less than 70%); herbicidal effect on I: wild oat (criteria 0-5) (wild oat [4]; [10]): 0 (Herbicidal rate of 5% or less (almost no effect)); R: persian speedwell, herbicidal effect rating (persian speedwell [5]; [9]): 4 (Herbicidal rate of 70% or more and less than 90%); herbicidal effect on O: lambsquarters (criteria 0-5) (lambsquarters [6]; [10]): 3 (Herbicidal rate of 40% or more and less than 70%); O: lambsquarters, herbicidal effect rating (lambsquarters [7]; [9]): 3 (Herbicidal rate of 40% or more and less than 70%); herbicidal effect on H: barnyard grass (criteria 0-5) (barnyard grass; [10]): 5 (Herbicidal rate of 90% or more (almost completely withered)); herbicidal effect on D: Chinese sprangletop (Chinese sprangletop; [9]): 5 (Herbicidal rate of 90% or more (almost completely withered)); herbicidal effect on M: velvetleaf (criteria 0-5) (velvetleaf; [10]): 3 (Herbicidal rate of 40% or more and less than 70%); J: blackgrass, herbicidal effect rating (blackgrass; [9]): 1 (Herbicidal rate of 5% or more and less than 20%); L: windgrass, herbicidal effect rating (windgrass [8]; [9]): 0 (Herbicidal rate of 5% or less (almost no effect))
CCCC(=O)Oc1c(C)nn(C)c(=O)c1-c1c(-c2ccc(OC)c(F)c2)sc2ccc(F)cc12 [2-087] | 0 (Herbicidal rate of 5% or less (almost no effect)) | 0 (Herbicidal rate of 5% or less (almost no effect)) | 2 (Herbicidal rate of 20% or more and less than 40%) | 4 (Herbicidal rate of 70% or more and less than 90%) | 0 (Herbicidal rate of 5% or less (almost no effect)) | 0 (Herbicidal rate of 5% or less (almost no effect)) | – | – | 0 (Herbicidal rate of 5% or less (almost no effect)) | – | 5 (Herbicidal rate of 90% or more (almost completely withered)) | – | 5 (Herbicidal rate of 90% or more (almost completely withered)) | – | – | 0 (Herbicidal rate of 5% or less (almost no effect)) | 0 (Herbicidal rate of 5% or less (almost no effect)) | herbicidal effect on L: windgrass (windgrass [2]; [10]): 0 (Herbicidal rate of 5% or less (almost no effect)); herbicidal effect on R: persian speedwell (persian speedwell [3]; [10]): 5 (Herbicidal rate of 90% or more (almost completely withered)); herbicidal effect on I: wild oat (wild oat [4]; [10]): 0 (Herbicidal rate of 5% or less (almost no effect)); herbicidal effect on O: lambsquarters (lambsquarters [6]; [10]): 4 (Herbicidal rate of 70% or more and less than 90%); herbicidal effect on H: barnyard grass (barnyard grass; [10]): 0 (Herbicidal rate of 5% or less (almost no effect)); herbicidal effect on M: velvetleaf (velvetleaf; [10]): 5 (Herbicidal rate of 90% or more (almost completely withered))
